“Also recorded” adds a separate entry of the source.
Tested on: Pten^pc−/−; Zbtb7a^pc−/− prostate tumors
Assay: In vivo drug and antibody treatment of Pten^pc−/−; Zbtb7a^pc−/− mice (MRI, flow cytometry, histology, western blot, qRT-PCR)
Set-up: species or system mouse
Method: Mice were allocated at random to experimental groups and studies were performed in an unblended manner. For treatment with the CXCR2 antagonist, SB225002 (Cayman Chemical #13336) was dissolved in DMSO (10 mg/ml) and diluted in vehicle (0.9% NaCl, 0.3% Tween 80) for in vivo administration. Mice (4 months of age) were treated daily for 10 days by intraperitoneal injection (5 mg/kg) and prostate tumor tissue (anterior lobes) was subjected to Flow Cytometry and histological analysis. For MRI analysis, mice (4 months of age) were treated daily for 21 days (Pten^pc-/-; Zbtb7a^pc-/-), for 14 days (Pten^pc-/-; Trp53^pc-/-) or for 14 days (Pten^pc-/-; Pml^pc-/-) by intraperitoneal injection (5 mg/kg). For depletion of Gr-1+/CD11b+ cells, Ly6G-depletion antibody (1A8, BioXcell) and control Rat IgG2a antibody (BioXcell) were diluted in phosphate-buffered saline (PBS) for in vivo administration. Mice (4 months of age) were treated every other day for 10 days by intraperitoneal injection (200-300 μg/mouse). InVivoMAb anti-mouse Ly6G/Ly6C (Gr-1) antibody, clone RB6-8C5 (BE0075, BioXcell), and control Rat IgG2b antibody (BE0090, BioXcell) were diluted in PBS and Pten^pc-/-; Trp53^pc-/- mice were treated every other day for 14 days by intraperitoneal injection (200 μg/mouse). For neutralization of CXCL5, anti-Mouse CXCL5 antibody (Leinco Technologies) and control Rat IgG2a antibody (BioXcell) were diluted in PBS and injected every other day for 21 days by intraperitoneal injection (20 μg/mouse). Tumor volume quantification was performed by using VivoQuant and Image J software. All mouse prostate MRI imaging analysis was performed at Small Animal Imaging Core at BIDMC and acquired on an […] Model M2 1T tabletop scanner. For western blotting, cell lysates were prepared by homogenizing tumor tissue with NP40 Buffer (Boston Bioproducts) supplemented with protease (Roche) and HALT phosphatase inhibitor cocktails (Thermo Scientific) and subsequently subjected to SDS-Gel separation (Invitrogen) and western blotting. The following antibodies were used for western blotting: […] (AC-74; Sigma), CXCL5 (R & D Systems #AF433), pIRAK4 (Cell Signaling Technology #11927S), IRAK4 (Cell Signaling Technology #4363P), IκBα (Cell Signaling Technology #4812S), Zbtb7a (hamster anti-Zbtb7a clone 13E9), PTEN (Cell Signaling Technology #9559S), p53 (Cell Signaling Technology #2524S), p21 (Santa Cruz Biotechnology sc-6246) and HSP90 (BD Biosciences BDB610419). Western blots were quantified using Image J software. For immunohistochemistry, tissues and organoids were fixed in 4% paraformaldehyde and embedded in paraffin in accordance with standard procedures. Embedding and hematoxylin and eosin staining of sections were performed by the Histology Core at BIDMC and analyzed by a pathologist. Sections were stained with anti-LY6G (BioLegend #127603), anti-CD45R (Abcam #ab64100), anti-CD3 (Abcam #ab5690), anti-beta Catenin (Abcam #32572), anti-phospho ERK (Cell Signaling Technology #4376), anti-phospho AKT Ser473 (Cell Signaling Technology #4060) and anti-Ki67 (Thermo Scientific #RM-9106) according to manufacturer's recommendations. For Flow Cytometry, spleen and lymph node single cell suspensions were prepared by mashing the tissue in 2% FBS/PBS. Tumor and control prostate tissue (from anterior lobes) single cell suspension was prepared by mincing the tumor and digestion with Collagenase Type I (Life Technologies #17018029) in 10% DMEM (GIBCO) for 1 hr at 37° C. […]

**Q.** What does the source list for `O=C(Nc1ccc([N+](=O)[O-])cc1O)Nc1ccccc1Br` [SB225002]?
**A.** tumor growth (tumor volume by MRI) (Zbtb7a^pc−/− mice, intraperitoneal injection, vs vehicle): significantly suppressed the tumor growth; also recorded: significant inhibition of tumor growth; intra-tumoral Gr-1+/CD11b+ cells (flow cytometry) (Zbtb7a^pc−/− prostate tumors after treatment): decrease of Gr-1+/CD11b+ cells; tumor burden (histological analysis) (Zbtb7a^pc−/− tumors, anterior prostate lobes): reduced tumor burden; also recorded: significantly diminished tumor involvement; IκBα protein level (western blot) (Zbtb7a^pc−/− tumors, normalized with β-actin, vs vehicle): increased IκBα protein levels; expression of CXCL5 in the prostate tumors (Zbtb7a^pc−/− tumors, vs vehicle): elevated expression of CXCL5

Source: patent publication US20210277102A1, “COMPOSITIONS AND METHODS FOR TREATING A TUMOR SUPPRESSOR DEFICIENT CANCER” (BETH ISRAEL DEACONESS MEDICAL CENTER, INC., priority 2016, published 2021)
